Test results as given in patent US11098040B2, “Compounds and methods of use” (Ferro Therapeutics, Inc., priority 2018, dated 2021).
Read-outs that look alike come from different tables or passages of the source.

What was measured:
[1] = system: MiaPaCa-2; test: Cell viability assay (CellTiter Glo), pancreatic carcinoma MiaPaCa-2; format: cell-based; settings: Homo sapiens
Procedure: (§1) Cell viability assay was performed to assess the potency of the compounds in human cancer cell lines KP4 (pancreatic ductal adenocarcinoma), MiaPaCa-2 (pancreatic carcinoma), AsPC-1 (pancreatic adenocarcinoma, ascites), 143B (osteosarcoma), and SJSA-1 (osteosarcoma). Selected compounds were also assayed in a human breast epithelial cell line MCF-10A, a nontumorigenic cell line as a control to assess differential activity. Cells at a density of 500-5,000 cells/well were seeded in 96-well plates and incubated at 37° C. overnight. A series of 9 different concentrations of compound stocks (500×) were created by 3-fold serial dilution in DMSO. These compounds were further diluted in culture media and then added to cells so that the final DMSO concentration was equal to 0.25% or less. After 96 hours of incubation, 50 μL of CellTiter Glo reagent (Promega) was added to each well and luminescence was measured after 10 minutes using EnVision (PerkinElmer). Compounds titrated from top concentration of up to 30 μM. The select compounds were tested initially from 30 μM as the top concentration in duplicates (range of 4.6 nM-30 μM). […] Luminescence from cells treated with DMSO alone was set as Max and % of inhibition was calculated as follows: Inhibition %=(Max-Sample value)/Max*100. Data was analyzed using XL-fit software (ID Business Solutions Ltd.). IC50, relative IC50, or % of top inhibition was calculated.
The results of the assay in the pancreatic cell lines are given in Table 15a for PANC1, Table 15b for MiaPaCa-2, and Table 15c for AsPC-1.

[2] = system: MCF-10A; test: Cell viability assay (CellTiter Glo), non-tumorigenic breast epithelial cell line MCF-10A; format: cell-based; settings: Homo sapiens, 96 hours
Procedure: as §1
Paclitaxel was used as the positive control for cytotoxicity.

[3] = system: KP4; test: Cell viability assay (CellTiter Glo), pancreatic ductal adenocarcinoma KP4; format: cell-based, human; settings: Homo sapiens
In short: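 KP4 cells seeded at 1,000–10,000 per well, treated 96 h with 9-point 3-fold dilutions from 30 μM top (4.6 nM–30 μM, duplicates; ≤0.25% DMSO). Viability by CellTiter Glo luminescence; % inhibition relative to DMSO-only wells, giving IC50, relative IC50 or % top inhibition.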

[4] = Whole blood stability, mouse; format: in vitro ADME
Description: (§2) The results of the assay on stability in blood and IC50 values for pancreatic cancer cell line KP4 are given below in Table 24.

[5] = Whole blood stability, human; format: in vitro ADME
Description: as §2

[6] = system: A549; test: Cell viability assay, A549 cells; format: cell-based; settings: Homo sapiens
Procedure: Example 5: Inducer Compound Effect on Growth of A549 and KP4 Cells
as §1, with “in” for “in human”, “line” for “lines”, “adenocarcinoma).” for “adenocarcinoma), MiaPaCa-2 (pancreatic carcinoma), AsPC-1 (pancreatic adenocarcinoma, ascites), 143B (osteosarcoma), and SJSA-1 (osteosarcoma). Selected compounds were also assayed in a human breast epithelial cell line MCF-10A, a nontumorigenic cell line as a control to assess differential activity.”, “1,000-10,000” for “500-5,000”, “All” for “Compounds titrated from top concentration of up to 30 μM. The select”, “calculated. […]” for “calculated.”

[7] = PK profile, IV plasma concentration and PK parameters; format: in vivo; settings: Balb/C nude, mouse
Procedure: The PK profiles of compounds 148, 149, 150, 156 and 169 are shown below. Compound 156 was formulated in 30% Kolliphor EL (Cremophor EL) in water and compounds 148, 149, 150 and 169 were formulated in 30% Kolliphore EL with 1% poloxamar 407 in water. All compounds were dosed at 5 mg/kg. Blood samples were collected at various time points and analyzed using the method described above.

[8] = system: 786-O; test: Cell proliferation (Alamar Blue) assay, 786-O renal cell carcinoma, with/without ferrostatin; format: cell-based; settings: Homo sapiens, 786-0, Cell Line 786-O; read-out: IC50
In short: (§3)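 Cells seeded at 5000/well, 16-24 h, then exposed 24 h at 37° C to compound, 10-0.0005 μM in 3-fold dilutions, 1% DMSO final. Alamar Blue fluorescence (ex 540/em 590 nm) read after 1.5 h; IC50 from variable-slope sigmoidal fit.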

[9] = system: SJSA-1; test: Cell proliferation (Alamar Blue) assay, SJSA-1 osteosarcoma, with/without ferrostatin; format: cell-based, human; settings: Homo sapiens, SJSA-1, Cell Line SJSA-1; read-out: IC50
In short: as §3

[10] = MIA PaCa-2, pancreatic carcinoma, 96 hours, CellTiter Glo, read-out: IC50 MiaPaCa-2
[11] = Cell Line Mia PaCa-2, read-out: IC50
[12] = KP-4, Cell Line KP4, read-out: IC50
[13] = A549, Cell Line A549, read-out: IC50
[14] = iv, 5 mg/kg, 30% Kolliphor EL in water (Table 10b)
[15] = iv, 5 mg/kg, 30% Kolliphore EL with 1% poloxamar 407 in water

CN(C)C(=O)[C@H]1Cc2c([nH]c3ccccc23)[C@H](c2ccc(NC(=O)OC(C)(C)C)cc2)N1C(=O)CCl [Example 56]
IC50 [1, 10]: 759 nM | IC50 [2]: 1510 nM

COC(=O)[C@H]1Cc2c([nH]c3ccccc23)[C@H](c2ccc(O)cc2)N1C(=O)CCl [Example 265]
IC50 [1, 10]: 246 nM | IC50 [1, 11]: 260 nM | IC50 [3, 12]: 0.16 µM

COC(=O)C1CCC([C@H]2c3[nH]c4ccccc4c3C[C@H](C(=O)N(C)C)N2C(=O)CCl)CC1 (some centres unmarked) [Example 41]
IC50 [1, 10]: 40 nM | IC50 [2]: 40 nM

CN(C)C(=O)[C@H]1Cc2c([nH]c3ccccc23)[C@@H](c2ccc([Si](C)(C)C)cc2)N1C(=O)CCl [Example 67a]
IC50 [1, 10]: 1360 nM

COC(=O)[C@H]1Cc2c([nH]c3ccccc23)[C@@H](c2ccc(C(=O)NCCN3CCOCC3)cc2)N1C(=O)CCl [Example 27a]
IC50 [1, 10]: 3000 nM | IC50 ([3]; KP-4, 96 h, pancreatic cancer cell line KP4, 96 hours, CellTiter Glo, read-out: IC50 μM KP4): 0.1 to 0.5 µM | Whole Blood Stability % Remaining at 37° C. Mouse ([4]; 0 min): 100.0% | Whole Blood Stability % Remaining at 37° C. Mouse ([4]; 30 min): 92.5% | Whole Blood Stability % Remaining at 37° C. Mouse ([4]; 60 min): 81.1% | Whole Blood Stability % Remaining at 37° C. Human ([5]; 0 min): 100.0% | Whole Blood Stability % Remaining at 37° C. Human ([5]; 30 min): 54.1% | Whole Blood Stability % Remaining at 37° C. Human ([5]; 60 min): 40.9%

COC(=O)[C@H]1Cc2c([nH]c3ccccc23)[C@H](c2ccc(C(=O)OC(C)(C)C)cc2)N1C(=O)C(Cl)Cl [Compound 263]
IC50 [1, 10]: 5570 nM | IC50 [1, 11]: 5570 nM | IC50 [3, 12]: 10.4 µM | IC50 [6, 13]: 6220 nM

COC(=O)[C@H]1Cc2c([nH]c3ccccc23)[C@H](c2ccc(C(=O)NCCN)cc2)N1C(=O)CCl [Example 15]
IC50 [1, 10]: 1320 nM

COC(=O)[C@H]1Cc2c([nH]c3ccccc23)[C@H](c2ccc(C(=O)OC(C)(C)C)cc2)N1C(=O)/C=C/CCl [Example 25]
IC50 [1, 10]: 858 nM

CN(C)C(=O)[C@H]1Cc2c([nH]c3ccccc23)[C@H](c2ccc(C(=O)NC[Si](C)(C)C)cc2)N1C(=O)CCl [Example 66]
IC50 [1, 10]: 159 nM

COC(=O)c1ccc([C@H]2c3[nH]c4ccccc4c3C[C@H](C(=O)OC)N2C(=O)/C=C/CN(C)C)cc1 [Compound 273]
IC50 [1, 11]: 10 nM | IC50 [3, 12]: 1.71 µM | IC50 [6, 13]: 3230 nM

C#CC(=O)N1[C@@H](CCCC)Cc2c([nH]c3c(F)cc(F)cc23)[C@@H]1c1ccc(F)cc1 [Compound 156]
concentration at 5 min ([7]; 5 mg/kg IV, BID q12, post 2nd dose, 5 min, 30% Kolliphor EL in water): 18500 ng/mL | concentration at 0.25 h ([7]; 5 mg/kg IV, BID q12, post 2nd dose, 0.25 h, 30% Kolliphor EL in water): 4640 ng/mL | concentration at 0.5 h ([7]; 5 mg/kg IV, BID q12, post 2nd dose, 0.5 h, 30% Kolliphor EL in water): 984 ng/mL | concentration at 1 h ([7]; 5 mg/kg IV, BID q12, post 2nd dose, 1 h, 30% Kolliphor EL in water): 302 ng/mL | concentration at 2 h ([7]; 5 mg/kg IV, BID q12, post 2nd dose, 2 h, 30% Kolliphor EL in water): 105 ng/mL | concentration at 4 h ([7]; 5 mg/kg IV, BID q12, post 2nd dose, 4 h, 30% Kolliphor EL in water): 45.9 ng/mL | concentration at 8 h ([7]; 5 mg/kg IV, BID q12, post 2nd dose, 8 h, 30% Kolliphor EL in water): 24.4 ng/mL | C0 [7, 14]: 38200 ng/mL | MRT inf [7, 14]: 33.2 min | clearance [7, 14]: 14.5 mL/min/kg | half-life [7, 14]: 180 min | AUC(0-inf) ([7]; iv, 5 mg/kg, 30% Kolliphor EL in water (Table 10b), read-out: AUCInf): 5920 ng·h/mL | AUC(0-t) ([7]; iv, 5 mg/kg, 30% Kolliphor EL in water (Table 10b), read-out: AUClast): 5810 ng·h/mL | Vd ([7]; iv, 5 mg/kg, 30% Kolliphor EL in water (Table 10b), read-out: Vss): 0.48 L/kg | Vd ([7]; iv, 5 mg/kg, 30% Kolliphor EL in water (Table 10b), read-out: Vz): 3.72 L/kg | IC50 [6, 13]: 4300 nM | IC50 [8]: 75.1 nM | IC50 [9]: 42.2 nM

COC(=O)[C@H]1Cc2c([nH]c3ccccc23)[C@@H](c2ccc(S(=O)(=O)N(C)C)cc2)N1C(=O)CCl [Example 23a]
IC50 [1, 10]: 3150 nM

CN(C)C(=O)c1ccc([C@H]2c3[nH]c4ccccc4c3C[C@H](C(=O)N(C)C)N2C(=O)CCl)cc1 [Example 38]
IC50 [1, 10]: 3630 nM | IC50 [2]: 19600 nM

CN(C)C(=O)[C@H]1Cc2c([nH]c3ccccc23)[C@H](c2ccc(S(C)(=O)=O)cc2)N1C(=O)CCl [Example 59]
IC50 [1, 10]: 591 nM | IC50 [2]: 8780 nM

CN(C)C(=O)[C@H]1Cc2c([nH]c3ccccc23)[C@H](c2ccc(C(=O)N(CCC(=O)OC(C)(C)C)C(C)(C)C)cc2)N1C(=O)CCl [Example 54]
IC50 [1, 10]: 217 nM | IC50 [2]: 560 nM | IC50 ([6]; A549, A549, unit printed as PM, read-out: IC50 for A549): 790 nM

C[C@H]1Cc2c([nH]c3ccccc23)[C@H](c2ccc(NC34CC5CC(CC(C5)C3)C4)cc2)N1C(=O)CCl [Compound 150, 1-((1S,3S)-1-(4-(((3R,5R,7R)-adamantan-1-yl)amino)phenyl)-3-methyl-1,3,4,9-tetrahydro-2H-pyrido[3,4-b]indol-2-yl)-2-chloroethan-1-one]
C0 [7, 15]: 3400 ng/mL | Cmax [7, 15]: 2260 ng/mL | clearance [7, 15]: 113 mL/min/kg | AUC(0-t) ([7]; iv, 5 mg/kg, 30% Kolliphore EL with 1% poloxamar 407 in water, read-out: AUC0-t): 735 ng·h/mL | AUC(0-inf) ([7]; iv, 5 mg/kg, 30% Kolliphore EL with 1% poloxamar 407 in water, read-out: AUC0-∞): 740 ng·h/mL | Vd ([7]; iv, 5 mg/kg, 30% Kolliphore EL with 1% poloxamar 407 in water, read-out: Vd): 3.25 L/kg | Vd ([7]; iv, 5 mg/kg, 30% Kolliphore EL with 1% poloxamar 407 in water, read-out: Vss): 1.64 L/kg | half-life ([7]; iv, 5 mg/kg, 30% Kolliphore EL with 1% poloxamar 407 in water, time points considered 0.25-2 h): 19.8 min | IC50 [8]: 9 nM | IC50 [9]: 8 nM

COCCN(C(=O)c1ccc([C@H]2c3[nH]c4ccccc4c3C[C@H](C(=O)N(C)C)N2C(=O)CCl)cc1)C(C)(C)C [Example 52]
IC50 [1, 10]: 243 nM | IC50 [2]: 180 nM | IC50 ([6]; A549, A549, read-out: IC50 for A549): 280 to 360 nM
